Counter-ions that a name gives are not always drawn. Like-named read-outs stand apart in the source and are kept apart here.
Legend:
in vitro [1] = details: human
Ebola trVLP replication = assay: microbe, parasite or virus in culture; assay type: cell-based, Ebola virus (EBOV)
in vitro [2] = details: human; remark: listed apart in the source
EBOV GP = assay type: cell-based, Ebola virus (EBOV)
HEK293T cells = details: human
VP40 = assay type: cell-based, Ebola virus (EBOV)
[3] = system: tetracistronic minigenome RNA incorporated into trVLPs; assay type: cell-based, Ebola virus (EBOV)
rhinovirus = assay type: cell-based
dengue virus = assay type: cell-based

SMILES	CC50 (in vitro [1])	SI (selectivity index, ratio of CC50 to EC50) (Ebola trVLP replication)	EC50 (Ebola trVLP replication; Zaire ebolavirus, HEK-293T)	other results
CN1[C@@H]2CC[C@H]1C[C@@H](OC(c1ccccc1)c1ccccc1)C2 [Benztropine mesylate]	> 30 µM	–	–	–
CN1CCN(C(c2ccccc2)c2ccc(Cl)cc2)CC1 (centres unmarked) [Chlorcyclizine]	> 30 µM	> 17.0	2.7 ± 2.2 µM	–
CN1[C@@H]2CC[C@H]1C[C@@H](OC(c1ccccc1)c1ccc(Cl)cc1)C2 (some centres unmarked) [Hit 3-CPMT, 3a-[(4-chlorophenyl)phenylmethoxy]tropane]	> 30 µM	> 26.3	1.3 ± 0.5 µM	–
NC(=O)c1nc(F)c[nH]c1=O [Hit T-705, 6-flouro-3-hydroxy-2-pyrazinecarboxamide]	> 90 µM	> 13.0	4.7 ± 3.1 µM	–
CN1CCCN(C(c2ccccc2)c2ccc(Cl)cc2)CC1 (centres unmarked) [Homochlorcyclizine]	> 30 µM	> 37.1	0.8 µM	–
CC(C)(N)C(=O)N[C@H](COCc1ccccc1)C(=O)N1CCC2(CC1)CN(S(C)(=O)=O)c1ccccc12 [Ibutamoren mesylate, ibutamoren mesylate]	–	> 81.1	0.2 µM	CC50 (in vitro [2]): 76.7 µM; reduction of the number of GP-positive spots (EBOV GP): 74.2%; CC50 (HEK293T cells): > 30 µM; EC50 (Ebola trVLP replication): < 0.4 µM; S.I. (selectivity index) (Ebola trVLP replication): 222.8; VP40 protein level (Western blot) (VP40): downregulated in a dose-dependent manner; amount of negative-sense minigenome RNA incorporated into trVLPs [3]: suppression of the amount of negative-sense minigenome RNA incorporated into trVLPs in a dose-dependent manner
CN(C)C(=O)C(CCN1CCC(O)(c2ccc(Cl)cc2)CC1)(c1ccccc1)c1ccccc1 [Loperamide]	> 30 µM	–	–	–
CNCCCC12CCC(c3ccccc31)c1ccccc12 [Maprotiline]	25.1 ± 2.1 µM	–	–	–
OCCN1CCN(CCCN2c3ccccc3Sc3ccc(Cl)cc32)CC1 [Perphenazine]	17.4 ± 0.6 µM	27.7 ± 9.2	0.7 ± 0.2 µM	–
CC(=O)c1ccc2c(c1)N(CCCN1CCC(CCO)CC1)c1ccccc1S2 [Piperacetazine]	26.1 ± 5.5 µM	15.7 ± 4.6	2 ± 0.6 µM	–
CCCC(C(=O)OCCN(CC)CC)(c1ccccc1)c1ccccc1 [Proadifen]	> 30 µM	> 11.6	2.7 ± 0.7 µM	–
NC(=O)c1ncn([C@@H]2O[C@H](CO)[C@@H](O)[C@H]2O)n1 [RBV, ribavirin]	–	> 16.3	–	reduction of the number of GP-positive spots (EBOV GP): 62.5%; CC50 (HEK293T cells): > 90 µM; EC50 (Ebola trVLP replication): 4.1 ± 2.1 µM; VP40 protein level (Western blot) (VP40): downregulated in a dose-dependent manner
O=C(c1ccc(OCCN2CCCCC2)cc1)c1c(-c2ccc(O)cc2)sc2cc(O)ccc12 [Raloxifene, raloxifene hydrochloride]	13.9 µM	47.1 ± 2.2	–	CC50 (in vitro [2]): 23.4 µM; reduction of the number of GP-positive spots (EBOV GP): 69.1%; viral inhibition in cells (rhinovirus): no viral inhibition; CC50 (HEK293T cells): 25.6 ± 0.2 µM; VP40 protein level (Western blot) (VP40): downregulated in a dose-dependent manner; amount of negative-sense minigenome RNA incorporated into trVLPs [3]: suppression of the amount of negative-sense minigenome RNA incorporated into trVLPs in a dose-dependent manner; viral inhibition in cells (dengue virus): no viral inhibition
Cc1[nH]c(/C=C2\C(=O)Nc3ccc(S(=O)(=O)N(C)c4cccc(Cl)c4)cc32)c(C)c1C(=O)N1CCN(C)CC1 [SU11274]	> 30 µM	> 13.6	2.6 ± 1.4 µM	–
O=C1NCCN1CCN1CCC(c2cn(-c3ccc(F)cc3)c3ccc(Cl)cc23)CC1 [Sertindole]	23.1 µM	> 45.8	–	CC50 (in vitro [2]): 13.7 µM; reduction of the number of GP-positive spots (EBOV GP): 84.7%; viral inhibition in cells (rhinovirus): no viral inhibition; CC50 (HEK293T cells): > 30 µM; VP40 protein level (Western blot) (VP40): downregulated in a dose-dependent manner; amount of negative-sense minigenome RNA incorporated into trVLPs [3]: suppression of the amount of negative-sense minigenome RNA incorporated into trVLPs in a dose-dependent manner; viral inhibition in cells (dengue virus): no viral inhibition
CN(C)CCCN1c2ccccc2Sc2ccc(C(F)(F)F)cc21 [Triflupromazine]	> 30 µM	> 23.8	1.4 ± 0.5 µM	–
